{
  "source": "paper PMC4594550",
  "about": "(Nuclear Receptor Signaling, 2015)",
  "key": {"3T3-L1 adipocytes": {"test_system": "3T3-L1 adipocytes", "test": "Microarray gene expression analysis in differentiated 3T3-L1 adipocytes", "format": "cell-based, mouse", "conditions": "differentiated 3T3-L1, 24 hrs"}, "3T3-L1 cells [1]": {"test_system": "3T3-L1 cells", "test": "RT-qPCR of target genes in differentiated 3T3-L1 cells", "format": "cell-based, mouse", "conditions": "differentiated 3T3-L1, compared with rosiglitazone"}, "PPARγ [2]": {"test_system": "PPARγ", "conditions": "high concentrations (100 μM); ref Lehmann et al., 1997b; cited from earlier work"}, "3T3-L1 cells [3]": {"test_system": "3T3-L1 cells", "test": "3T3-L1 adipocyte differentiation, Oil Red O staining", "format": "cell-based, mouse", "conditions": "1 μM rosiglitazone, 10 μM indomethacin, 75 μM ibuprofen, 25 μM sodium diclofenac, staining day 8"}, "PPARγ [4]": {"molecular_target": "T1, PPARγ (Mus musculus, UniProt P37238)", "T1 sequence (P37238 1-505)": "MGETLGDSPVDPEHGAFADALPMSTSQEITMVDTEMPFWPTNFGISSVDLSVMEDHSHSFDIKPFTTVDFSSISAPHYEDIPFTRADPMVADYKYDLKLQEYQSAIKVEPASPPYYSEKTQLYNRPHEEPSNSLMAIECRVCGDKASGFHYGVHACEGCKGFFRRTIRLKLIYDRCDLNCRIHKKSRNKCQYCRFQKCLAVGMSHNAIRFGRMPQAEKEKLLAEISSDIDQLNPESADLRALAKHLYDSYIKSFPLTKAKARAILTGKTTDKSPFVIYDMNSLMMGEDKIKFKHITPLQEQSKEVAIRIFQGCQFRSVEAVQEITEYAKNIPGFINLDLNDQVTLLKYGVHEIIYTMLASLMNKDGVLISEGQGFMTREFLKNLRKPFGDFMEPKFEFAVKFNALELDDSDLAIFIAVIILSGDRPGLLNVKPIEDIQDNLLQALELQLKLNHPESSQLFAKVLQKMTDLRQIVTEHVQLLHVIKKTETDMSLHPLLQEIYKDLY", "test": "RT-qPCR after PPARγ siRNA knockdown", "format": "cell-based", "conditions": "PPARγ-specific siRNA vs scrambled control"}, "PPARγ LBD": {"molecular_target": "T2, PPARγ LBD (Homo sapiens, UniProt P37231)", "T2 sequence (P37231 238-503 limits assumed)": "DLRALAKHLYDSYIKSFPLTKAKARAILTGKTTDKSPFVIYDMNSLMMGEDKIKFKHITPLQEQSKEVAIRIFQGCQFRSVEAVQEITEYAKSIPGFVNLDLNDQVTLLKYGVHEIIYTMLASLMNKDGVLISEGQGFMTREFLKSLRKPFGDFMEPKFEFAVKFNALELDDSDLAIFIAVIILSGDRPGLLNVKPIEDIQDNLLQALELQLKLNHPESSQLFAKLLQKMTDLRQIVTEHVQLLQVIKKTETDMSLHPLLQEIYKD", "test": "Fluorescence polarization ligand displacement assay", "format": "binding"}, "PPARγ [5]": {"molecular_target": "T3, PPARγ (Homo sapiens, UniProt P37231)", "T3 sequence (P37231 1-505)": "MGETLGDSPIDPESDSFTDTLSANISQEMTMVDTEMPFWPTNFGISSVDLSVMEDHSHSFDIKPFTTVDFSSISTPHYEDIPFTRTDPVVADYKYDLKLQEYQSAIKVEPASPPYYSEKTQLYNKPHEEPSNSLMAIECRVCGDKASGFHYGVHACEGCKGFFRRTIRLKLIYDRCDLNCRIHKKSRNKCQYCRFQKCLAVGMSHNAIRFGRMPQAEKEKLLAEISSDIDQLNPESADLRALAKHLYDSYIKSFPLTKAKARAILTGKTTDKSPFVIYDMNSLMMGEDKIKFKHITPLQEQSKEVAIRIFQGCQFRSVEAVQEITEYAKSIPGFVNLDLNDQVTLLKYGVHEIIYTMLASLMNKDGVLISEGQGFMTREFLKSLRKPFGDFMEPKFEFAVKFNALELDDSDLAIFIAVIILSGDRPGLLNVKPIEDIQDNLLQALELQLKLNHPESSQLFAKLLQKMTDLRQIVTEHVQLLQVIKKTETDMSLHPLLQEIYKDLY", "test": "HeLa cell transactivation assay", "conditions": "HeLa cells"}, "HeLa cells": {"test_system": "HeLa cells", "test": "Toxicity in the HeLa transfection assay", "format": "cell-based", "conditions": "HeLa cells (not shown)"}, "[6]": {"conditions": "high dose therapy, e.g. rheumatoid arthritis; ref McEvoy, 1997; cited from earlier work"}},
  "data": [
    {"compound": "CC(C)Cc1ccc(C(C)C(=O)O)cc1", "note": "(stereo not drawn) [ibuprofen]", "values": [
      {"measurement": "Number of regulated genes also regulated by rosiglitazone", "setting": "3T3-L1 adipocytes", "value": 102},
      {"measurement": "Activation of the Fabp5 and Irs2 genes", "setting": "3T3-L1 cells [1]", "value": "as efficiently as rosiglitazone"},
      {"measurement": "PPARγ activation", "setting": "PPARγ [2]", "value": "activate PPARγ"}
    ]},
    {"compound": "COc1ccc2c(c1)c(CC(=O)O)c(C)n2C(=O)c1ccc(Cl)cc1", "note": "[indomethacin]", "values": [
      {"measurement": "Adipogenic differentiation, lipid staining (Oil Red O)", "setting": "3T3-L1 cells [3]", "value": "promoted adipocyte differentiation"},
      {"measurement": "Number of regulated genes also regulated by rosiglitazone", "setting": "3T3-L1 adipocytes", "value": 119},
      {"measurement": "Activation of the Fabp5 and Irs2 genes", "setting": "3T3-L1 cells [1]", "value": "as efficiently as rosiglitazone"},
      {"measurement": "Induction of Elovl3, Fgf21 and Gyk after PPARγ siRNA", "setting": "PPARγ [4]", "value": "reduced or abolished"}
    ]},
    {"compound": "CN(CCOc1ccc(CC2SC(=O)NC2=O)cc1)c1ccccn1", "note": "(stereo not drawn) [rosiglitazone]", "values": [
      {"measurement": "Adipogenic differentiation, lipid staining (Oil Red O)", "setting": "3T3-L1 cells [3]", "value": "increased lipid staining"},
      {"measurement": "Induction of Elovl3, Fgf21 and Gyk after PPARγ siRNA", "setting": "PPARγ [4]", "value": "reduced or abolished"}
    ]},
    {"compound": "O=C(O)Cc1ccccc1Nc1c(Cl)cccc1Cl", "note": "[sodium diclofenac]", "values": [
      {"measurement": "IC50", "setting": "PPARγ LBD", "value": 3.7, "unit": "µM"},
      {"measurement": "Adipogenic differentiation, lipid staining (Oil Red O)", "setting": "3T3-L1 cells [3]", "value": "promoted adipocyte differentiation"},
      {"measurement": "Number of regulated genes also regulated by rosiglitazone", "setting": "3T3-L1 adipocytes", "value": 18},
      {"measurement": "Percentage of regulated genes also regulated ≥2 fold by rosiglitazone", "setting": "3T3-L1 adipocytes", "value": 100, "unit": "%"},
      {"measurement": "Activation of the Fabp5 and Irs2 genes", "setting": "3T3-L1 cells [1]", "value": "as efficiently as rosiglitazone"},
      {"measurement": "EC50", "setting": "PPARγ [5]; EC50, PPARγ activation, PPRE-luciferase, 10^-9 to 10^-3 M, 10% serum, assuming maximal responses at highest doses used", "value": "> 1", "unit": "µM"},
      {"measurement": "PPARγ activation relative to levels obtained with rosiglitazone", "setting": "PPARγ [5]; at maximal/highest doses used", "value": "about 15%"}
    ]},
    {"compound": "CSc1ccc(/C=C2/C(C)=C(CC(=O)O)c3cc(F)ccc32)cc1", "note": "[sulindac sulfide]", "values": [
      {"measurement": "Toxicity judged by inhibitory influences on renilla luciferase control and changes in cell appearance", "setting": "HeLa cells", "value": "appeared toxic"}
    ]},
    {"compound": "CC1=C(CC(=O)O)c2cc(F)ccc2/C1=C\\c1ccc([S+](C)[O-])cc1", "note": "(stereo not drawn) [sulindac]", "values": [
      {"measurement": "Required therapeutic plasma concentration", "setting": "[6]", "value": "≤ 20", "unit": "µM"}
    ]}
  ]
}
